Test results reported in PubChem BioAssay (NCI).
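Dose response: 5 concentrations. Exposure: 48 h. Format: 96-well plates. Endpoint: linear interpolation; highest concentration if not reached. TGI marks complete inhibition of growth.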

Legend:
Experiment in all cases: inhibition of tumour cell growth, NCI panel, 48 h
UACC-257 melanoma = tested on: UACC-257 melanoma
OVCAR-3 ovarian = tested on: OVCAR-3 ovarian
M14 melanoma = tested on: M14 melanoma
HCT-15 colon = tested on: HCT-15 colon
SF-539 CNS = tested on: SF-539 CNS
HL-60(TB) leukemia = tested on: HL-60(TB) leukemia
786-0 renal = tested on: 786-0 renal
SW-620 colon = tested on: SW-620 colon
LXFL 529 NSCLC = tested on: LXFL 529 NSCLC
M19-MEL melanoma = tested on: M19-MEL melanoma
TK-10 renal = tested on: TK-10 renal
HOP-92 NSCLC = tested on: HOP-92 NSCLC
HT29 colon = tested on: HT29 colon
UACC-62 melanoma = tested on: UACC-62 melanoma
DMS 114 small cell lung = tested on: DMS 114 small cell lung
OVCAR-8 ovarian = tested on: OVCAR-8 ovarian
KM12 colon = tested on: KM12 colon
SK-MEL-2 melanoma = tested on: SK-MEL-2 melanoma
CAKI-1 renal = tested on: CAKI-1 renal
DLD-1 colon = tested on: DLD-1 colon
EKVX NSCLC = tested on: EKVX NSCLC
SK-OV-3 ovarian = tested on: SK-OV-3 ovarian
LOX IMVI melanoma = tested on: LOX IMVI melanoma
OVCAR-5 ovarian = tested on: OVCAR-5 ovarian
SK-MEL-28 melanoma = tested on: SK-MEL-28 melanoma
UO-31 renal = tested on: UO-31 renal
NCI-H23 lung = tested on: NCI-H23 lung
K-562 leukemia = tested on: K-562 leukemia
SF-268 CNS = tested on: SF-268 CNS
KM20L2 colon = tested on: KM20L2 colon
CCRF-CEM leukemia = tested on: CCRF-CEM leukemia
NCI-H226 lung = tested on: NCI-H226 lung
ACHN renal = tested on: ACHN renal
HCC-2998 colon = tested on: HCC-2998 colon
SNB-75 CNS = tested on: SNB-75 CNS
U251 CNS = tested on: U251 CNS
RPMI-8226 leukemia = tested on: RPMI-8226 leukemia
SF-295 CNS = tested on: SF-295 CNS
A549 NSCLC = tested on: A549 NSCLC
NCI-H460 lung = tested on: NCI-H460 lung
SN12C renal = tested on: SN12C renal
SNB-19 CNS = tested on: SNB-19 CNS
NCI-H522 lung = tested on: NCI-H522 lung
SK-MEL-5 melanoma = tested on: SK-MEL-5 melanoma
SR leukemia = tested on: SR leukemia
RXF 393 renal = tested on: RXF 393 renal
HCT-116 colon = tested on: HCT-116 colon
MALME-3M melanoma = tested on: MALME-3M melanoma
DMS 273 small cell lung = tested on: DMS 273 small cell lung
A498 renal = tested on: A498 renal
HOP-18 NSCLC = tested on: HOP-18 NSCLC
RXF-631 renal = tested on: RXF-631 renal
IGROV1 ovarian = tested on: IGROV1 ovarian
HOP-62 NSCLC = tested on: HOP-62 NSCLC
SNB-78 CNS = tested on: SNB-78 CNS
OVCAR-4 ovarian = tested on: OVCAR-4 ovarian
MOLT-4 leukemia = tested on: MOLT-4 leukemia
COLO 205 colon = tested on: COLO 205 colon
XF 498 CNS = tested on: XF 498 CNS

COc1ccc(NC(=O)C(=O)NO)c(OC)c1
TGI (UACC-257 melanoma): 38 µM | TGI (OVCAR-3 ovarian): 30.3 µM | TGI (M14 melanoma): 29.9 µM | TGI (HCT-15 colon): 31.2 µM | TGI (SF-539 CNS): 36.3 µM | TGI (HL-60(TB) leukemia): 43 µM | TGI (786-0 renal): 29.6 µM | TGI (SW-620 colon): 34.5 µM | TGI (LXFL 529 NSCLC): 30.3 µM | TGI (M19-MEL melanoma): 38.9 µM | TGI (TK-10 renal): 37.1 µM | TGI (HOP-92 NSCLC): 35.7 µM | TGI (HT29 colon): 38.1 µM | TGI (UACC-62 melanoma): 28.9 µM | TGI (DMS 114 small cell lung): 29 µM | TGI (OVCAR-8 ovarian): 33.3 µM | TGI (KM12 colon): 34.2 µM | TGI (SK-MEL-2 melanoma): 30.9 µM | TGI (CAKI-1 renal): 27.3 µM | TGI (DLD-1 colon): 41 µM | TGI (EKVX NSCLC): 28.7 µM | TGI (SK-OV-3 ovarian): 33.7 µM | TGI (LOX IMVI melanoma): 27.2 µM | TGI (OVCAR-5 ovarian): 33.6 µM | TGI (SK-MEL-28 melanoma): 33.1 µM | TGI (UO-31 renal): 29.8 µM | TGI (NCI-H23 lung): 34.1 µM | TGI (K-562 leukemia): 56.4 µM | TGI (SF-268 CNS): 32.1 µM | TGI (KM20L2 colon): 33.3 µM | TGI (CCRF-CEM leukemia): 98 µM | TGI (NCI-H226 lung): 41.6 µM | TGI (ACHN renal): 29.3 µM | TGI (HCC-2998 colon): 35.8 µM | TGI (SNB-75 CNS): 35.3 µM | TGI (U251 CNS): 30.5 µM | TGI (RPMI-8226 leukemia): 49.1 µM | TGI (SF-295 CNS): 27 µM | TGI (A549 NSCLC): 35.4 µM | TGI (NCI-H460 lung): 33.4 µM | TGI (SN12C renal): 39.6 µM | TGI (SNB-19 CNS): 28.2 µM | TGI (NCI-H522 lung): 19 µM | TGI (SK-MEL-5 melanoma): 32.5 µM | TGI (SR leukemia): 25.9 µM | TGI (RXF 393 renal): 29.2 µM | TGI (HCT-116 colon): 32.4 µM | TGI (MALME-3M melanoma): 54.6 µM | TGI (DMS 273 small cell lung): 35.3 µM | TGI (A498 renal): 39 µM | TGI (HOP-18 NSCLC): 31.1 µM | TGI (RXF-631 renal): 57 µM | TGI (IGROV1 ovarian): 32 µM | TGI (HOP-62 NSCLC): 35.1 µM | TGI (SNB-78 CNS): 44.1 µM | TGI (OVCAR-4 ovarian): 37.7 µM | TGI (MOLT-4 leukemia): 35.2 µM | TGI (COLO 205 colon): 37.7 µM

c1ccc(C(c2ccccc2)c2ccncc2)cc1
TGI (UACC-257 melanoma): > 100 µM | TGI (XF 498 CNS): > 100 µM | TGI (OVCAR-3 ovarian): > 100 µM | TGI (M14 melanoma): > 100 µM | TGI (HCT-15 colon): > 100 µM | TGI (SF-539 CNS): > 100 µM | TGI (786-0 renal): > 100 µM | TGI (SW-620 colon): > 100 µM | TGI (M19-MEL melanoma): > 100 µM | TGI (TK-10 renal): > 100 µM | TGI (HT29 colon): > 100 µM | TGI (UACC-62 melanoma): > 100 µM | TGI (DMS 114 small cell lung): > 100 µM | TGI (OVCAR-8 ovarian): > 100 µM | TGI (KM12 colon): > 100 µM | TGI (SK-MEL-2 melanoma): > 100 µM | TGI (CAKI-1 renal): > 100 µM | TGI (DLD-1 colon): > 100 µM | TGI (EKVX NSCLC): > 100 µM | TGI (SK-OV-3 ovarian): > 100 µM | TGI (LOX IMVI melanoma): > 100 µM | TGI (OVCAR-5 ovarian): > 100 µM | TGI (SK-MEL-28 melanoma): > 100 µM | TGI (UO-31 renal): > 100 µM | TGI (NCI-H23 lung): > 100 µM | TGI (K-562 leukemia): > 100 µM | TGI (SF-268 CNS): > 100 µM | TGI (KM20L2 colon): > 100 µM | TGI (CCRF-CEM leukemia): > 100 µM | TGI (NCI-H226 lung): > 100 µM | TGI (ACHN renal): > 100 µM | TGI (HCC-2998 colon): > 100 µM | TGI (SNB-75 CNS): 74.3 µM | TGI (U251 CNS): > 100 µM | TGI (RPMI-8226 leukemia): > 100 µM | TGI (SF-295 CNS): > 100 µM | TGI (A549 NSCLC): > 100 µM | TGI (NCI-H460 lung): > 100 µM | TGI (SN12C renal): > 100 µM | TGI (SNB-19 CNS): > 100 µM | TGI (SK-MEL-5 melanoma): > 100 µM | TGI (HCT-116 colon): > 100 µM | TGI (MALME-3M melanoma): > 100 µM | TGI (DMS 273 small cell lung): > 100 µM | TGI (A498 renal): > 100 µM | TGI (HOP-18 NSCLC): > 100 µM | TGI (RXF-631 renal): > 100 µM | TGI (IGROV1 ovarian): > 100 µM | TGI (HOP-62 NSCLC): > 100 µM | TGI (SNB-78 CNS): > 100 µM | TGI (OVCAR-4 ovarian): > 100 µM | TGI (MOLT-4 leukemia): > 100 µM | TGI (COLO 205 colon): > 100 µM
